Results published in patent publication US9757400B2, “Peptidomimetic inhibitors of post-proline cleaving enzymes” (Trustees of Tufts College, priority 2001, dated 2017).

Columns and labels:
[1] = Cyclization equilibrium, ratio of [cyclic]:[open] forms; format: physicochemical; settings: at equilibrium at pH 7.0
Text: In this example, Xaa-boro-Ala analogs containing bulky R substituent will be constructed to prevent cyclization and increase biological activity. […] The open, active, inhibitory chain species is favored at low pH while the cyclized structure is favored at high pH. Also, the reaction is fully reversible: the open chain becomes predominate at low pH. The open chain to cyclic species reaction involves a trans to cis isomerization of the proline and the formation of a new N—B bond. […] This means that less than 1% Pro-boroPro and less than 0.1% of Val-boroPro exists as the open chain, inhibitory species, at equilibrium at pH 7.0.
One feature of the present invention relates to the equilibrium constant for cyclization. […] In addition, the cis-trans isomerization rate, and therefore the rates of cyclization and uncyclization, are also much faster for compounds of the present invention. This feature is attributed by the inventors to a bulky substituent effect, e.g. where R in FIG. 8 represents a cyclohexyl.

soluble DPIV = soluble DPIV (Homo sapiens, UniProt P27487); settings: inventors' previous work; cited from earlier work
soluble DPIV, sequence (P27487 39-766 limits assumed): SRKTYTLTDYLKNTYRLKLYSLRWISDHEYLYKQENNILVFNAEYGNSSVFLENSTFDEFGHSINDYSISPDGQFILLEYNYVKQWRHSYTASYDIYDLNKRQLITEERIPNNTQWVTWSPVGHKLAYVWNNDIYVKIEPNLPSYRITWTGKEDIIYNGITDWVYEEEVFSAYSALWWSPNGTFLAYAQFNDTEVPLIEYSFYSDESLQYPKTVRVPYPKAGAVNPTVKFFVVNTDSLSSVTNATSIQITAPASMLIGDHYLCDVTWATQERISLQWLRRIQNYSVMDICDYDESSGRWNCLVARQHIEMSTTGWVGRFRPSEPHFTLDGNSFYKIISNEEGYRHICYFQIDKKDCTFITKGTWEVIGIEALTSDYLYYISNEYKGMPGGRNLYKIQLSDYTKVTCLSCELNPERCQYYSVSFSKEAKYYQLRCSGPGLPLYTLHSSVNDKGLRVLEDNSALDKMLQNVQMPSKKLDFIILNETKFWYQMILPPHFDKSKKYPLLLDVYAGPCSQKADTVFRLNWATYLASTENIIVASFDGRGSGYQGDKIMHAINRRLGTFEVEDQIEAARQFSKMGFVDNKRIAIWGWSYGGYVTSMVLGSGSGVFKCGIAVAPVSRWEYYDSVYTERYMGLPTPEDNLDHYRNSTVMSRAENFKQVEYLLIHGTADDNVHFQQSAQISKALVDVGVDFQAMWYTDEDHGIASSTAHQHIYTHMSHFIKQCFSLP

[2] = pH around neutral, due to cyclization, inventors' previous work; cited from earlier work
zucker obese rats = experiment: Oral glucose tolerance test (oral glucose challenge) in zucker rats; format: in vivo, rat; settings: oral 0.035 mg/kg or 0.35 mg/kg, oral glucose tolerance test within an hour, saline control
Experimental: In these “acute” experiments zucker obese and zucker lean rats were orally administered either 0.035 mg/kg (low dose) or 0.35 mg/kg (high dose) of cyclohexyl-gly boro ala and then subjected to an oral glucose tolerance test within an hour. Each set of experiments was also performed using saline as a control.

DPPIV [3] = target: DPPIV (Homo sapiens, UniProt P27487); experiment: Inhibitor inactivation at pH 8 (time course, DPPIV inhibition read-out); format: biochemical; settings: pre-incubated at pH 8 (7.5-8) for 0, 60, 120, 180 minutes; compared with His-bAla, Ala-bAla, Phg-bAla
DPPIV (Homo sapiens, UniProt P27487), sequence (P27487 whole entry, species assumed): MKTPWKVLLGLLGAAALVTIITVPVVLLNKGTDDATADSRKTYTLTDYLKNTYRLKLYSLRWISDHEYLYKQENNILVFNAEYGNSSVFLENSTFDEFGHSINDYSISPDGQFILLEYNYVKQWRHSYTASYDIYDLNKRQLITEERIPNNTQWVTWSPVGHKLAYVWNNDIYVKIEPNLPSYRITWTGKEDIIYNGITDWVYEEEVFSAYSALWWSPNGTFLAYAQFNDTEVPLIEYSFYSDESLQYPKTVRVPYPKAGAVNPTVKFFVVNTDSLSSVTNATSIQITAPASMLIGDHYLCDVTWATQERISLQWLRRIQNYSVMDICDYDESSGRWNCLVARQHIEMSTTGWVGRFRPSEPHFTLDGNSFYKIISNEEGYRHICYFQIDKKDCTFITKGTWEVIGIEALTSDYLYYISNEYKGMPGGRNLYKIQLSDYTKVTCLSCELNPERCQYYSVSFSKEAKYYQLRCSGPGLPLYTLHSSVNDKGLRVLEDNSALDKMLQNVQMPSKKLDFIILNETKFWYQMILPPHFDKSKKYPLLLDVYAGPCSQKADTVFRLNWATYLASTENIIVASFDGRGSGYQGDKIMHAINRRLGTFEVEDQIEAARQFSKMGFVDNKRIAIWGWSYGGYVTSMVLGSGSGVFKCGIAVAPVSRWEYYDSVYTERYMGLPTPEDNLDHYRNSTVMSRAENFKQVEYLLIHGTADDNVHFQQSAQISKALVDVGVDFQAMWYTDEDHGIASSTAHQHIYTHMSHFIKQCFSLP
Experimental: In this experiment stock solutions of inhibitors (His-bAla, Ala-bAla, Phg-bAla and Cyclohexylglycine-bAla) were prepared at pH 1-2. These stock solutions were pre-incubated at pH 8 as follows: first, 1:10 dilutions into a buffer (0.1 M HEPES pH 8, 0.14 M NaCl) were performed; secondly, the pH was measured after dilution and varied for different inhibitors between 7.5 and 8; and thirdly, incubations at this pH were performed for 0, 60, 120, 180 minutes. Following incubation, 1:10 serial dilutions of inhibitors in buffer and 1:10 dilution of inhibitors into Enzyme (DPPIV) in buffer were made. The inhibitors were pre-incubated with enzyme for 10 minutes to account for slow binding and substrate (H-Ala-Pro-paranitoranalide) was added at a concentration of approx.=KM (17 μM). Absorbances at 410 nm were recorded for all inhibitors after 30 minutes.

DPPIV [4] = target: T1, DPPIV (Rattus norvegicus, UniProt P14740); experiment: DPPIV assays on serum samples from treated rats; format: in vivo; settings: 1 hour after treatment versus before
T1 construct: from tissue; host or cells: rat serum
T1 sequence (P14740 37-767 limits assumed): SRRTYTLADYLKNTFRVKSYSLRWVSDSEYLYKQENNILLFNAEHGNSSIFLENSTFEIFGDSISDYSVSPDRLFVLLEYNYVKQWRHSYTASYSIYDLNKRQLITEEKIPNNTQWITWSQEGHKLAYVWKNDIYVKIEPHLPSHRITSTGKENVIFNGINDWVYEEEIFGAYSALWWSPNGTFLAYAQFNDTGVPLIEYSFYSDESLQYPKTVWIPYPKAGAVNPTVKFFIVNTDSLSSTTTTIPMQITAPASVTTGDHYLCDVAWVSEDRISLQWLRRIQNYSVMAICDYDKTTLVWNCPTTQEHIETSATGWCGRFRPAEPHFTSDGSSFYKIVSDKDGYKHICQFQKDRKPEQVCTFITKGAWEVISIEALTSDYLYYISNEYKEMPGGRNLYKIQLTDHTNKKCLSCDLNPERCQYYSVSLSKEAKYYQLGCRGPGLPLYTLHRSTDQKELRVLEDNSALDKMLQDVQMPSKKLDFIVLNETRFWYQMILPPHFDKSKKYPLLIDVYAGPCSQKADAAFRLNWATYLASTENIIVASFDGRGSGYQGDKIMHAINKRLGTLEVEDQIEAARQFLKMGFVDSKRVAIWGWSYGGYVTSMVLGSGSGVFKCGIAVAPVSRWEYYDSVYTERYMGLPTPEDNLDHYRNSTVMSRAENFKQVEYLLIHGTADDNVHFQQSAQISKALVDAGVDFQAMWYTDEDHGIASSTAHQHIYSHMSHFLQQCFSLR
Experimental: Four rats were used in this experiment: two females (#3 and #9) and two males (#10 and #11). Blood and plasma samples were collected from rats 1 hour after being treated with Cyclohexylglycine-boroAla. The collected serum samples were evaluated for DPPIV activity of Cyclohexylglycine-boroAla as follows: • 2 mg of Ala-Pro-paranitroanalide (substrate) was dissolved in 20 ml 0.1 M HEPES pH 8, 0.14 M NaCl (buffer). • Serum samples were diluted into substrate solution in the wells of a microtiter plate. For each sample, 10 uL of serum was diluted into 150 μL of substrate. • A reading of the A410 in each well was recorded immediately after the dilution of serum into substrate, and again after approximately 1 hour. The time of data acquisition for each reading is recorded in the data file by the microplate reader software.
The rate of absorbance change was obtained by subtracting the first reading from the second and dividing by the reaction time to give DeltaA410/hr. The DPPIV activity was plotted in units of DeltaA410 hr^−1 μL^−1.

Structure (SMILES) | fraction existing as the open chain, inhibitory species [1] | loss of inhibitory activity in aqueous solution [2] | also measured
O=C(C1CCCN1)N1CCCC1B(O)O (centres unmarked) [Pro-boroPro] | less than 1% | – | –
O=C(C1CCCN1)N1CCCC1B(O)O [L-Pro-D,L-boroPro] | – | lost some of their inhibitory activity rapidly | inhibition of the catalytic activity of soluble DPIV (soluble DPIV): potent inhibitors
CC(NC(=O)C(N)C1CCCCC1)B(O)O (centres unmarked) [Cyclohexylglycine-boroAla, Cyclohexylglycine boroAla] | – | – | blood sugar in oral glucose challenge after oral administration (zucker obese rats): orally active and clearly lowers blood sugar; pH-time dependant inhibition (inactivation at pH 8) (DPPIV [3]): does not show significant pH-time dependant inhibition; DPPIV enzyme activity in serum (DPPIV [4]): significantly decreased
CC(N)C(=O)N1CCCC1B(O)O [L-Ala-D,L-boroPro] | – | lost some of their inhibitory activity rapidly | –
CC(C)[C@H](N)C(=O)N1CCC[C@H]1B(O)O [Val-boroPro] | less than 0.1% | – | –
